Test results as given in patent US7704995B2 (Exelixis, Inc., priority 2003, dated 2010).
Like-named read-outs stand apart in the source and are kept apart here. Blank lines part the entries; values can stand above or below the compound they belong to.

Biological target: T1, Chk1 (Homo sapiens, UniProt O14757)
T1 construct: purchased Upstate Biotechnology
T1 sequence (O14757 1-476): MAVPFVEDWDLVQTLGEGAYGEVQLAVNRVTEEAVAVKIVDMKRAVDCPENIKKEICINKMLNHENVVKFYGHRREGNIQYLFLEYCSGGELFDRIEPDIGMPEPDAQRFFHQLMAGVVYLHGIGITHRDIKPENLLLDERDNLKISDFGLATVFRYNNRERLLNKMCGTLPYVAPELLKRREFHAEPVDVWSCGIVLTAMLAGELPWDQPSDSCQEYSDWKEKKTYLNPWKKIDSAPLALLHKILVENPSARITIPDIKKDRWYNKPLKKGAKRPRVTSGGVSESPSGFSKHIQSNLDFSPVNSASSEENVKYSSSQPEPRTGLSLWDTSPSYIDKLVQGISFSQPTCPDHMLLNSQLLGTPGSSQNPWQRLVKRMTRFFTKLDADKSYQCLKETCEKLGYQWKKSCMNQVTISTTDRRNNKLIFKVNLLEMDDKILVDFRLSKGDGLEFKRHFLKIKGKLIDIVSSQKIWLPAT
Test: Chk1 kinase assay: incorporation of γ-33P ATP into immobilized myelin basic protein
Assay type: biochemical
Conditions: read-out: Chk1 IC50
Experimental: Chk1 and Chk2 assays were performed by measuring incorporation of γ-^33P ATP into immobilized myelin basic protein (MBP). High binding white 384 well plates (Greiner) were coated with MBP (Sigma #M-1891) by incubation of 60 ul/well of 20 μg/ml MBP in Tris-buffered saline (TBS; 50 mM Tris pH 8.0, 138 mM NaCl, 2.7 mM KCl) for 24 hours at 4° C. Plates were washed 3× with 100 μl TBS. Kinase reactions were carried out in a total volume of 34 μl in kinase buffer (5 mM Hepes pH 7.6, 15 mM NaCl, 0.01% bovine gamma globulin (Sigma #I-5506), 10 mM MgCl2, 1 mM DTT, 0.02% TritonX-100). Compound dilutions were performed in DMSO and added to assay wells to a final DMSO concentration of 1%. Each data point was measured in duplicate, and at least two duplicate assays were performed for each individual compound determination. Chk1 and Chk2 enzymes (Upstate Biotechnology) were added to final concentrations of 10 nM (Chk1) or 20 nM (Chk2). A mixture of unlabeled ATP and γ-^33P ATP was added to start the reaction (2×10^6 cpm of γ-^33P ATP per well (3000 Ci/mmole) and either 10 μM or 30 μM unlabeled ATP (for Chk1 and Chk2 assays respectively). The reaction was carried out for 1 hour at room temperature with shaking. Plates were washed 7× with TBS, followed by the addition of 50 μl/well scintillation fluid (Wallac). Plates were read using a Wallac Trilux counter. This is only one format of such assays, various other formats are possible, as known to those skilled in the art.
The above assay procedure can be used to determine the IC50 for inhibition and/or the inhibition constant Ki. The IC50 is defined as the concentration of compound required to reduce the enzyme activity by 50% under the conditions of the assay. […] The Ki for a compound may be determined from the IC50 based on three assumptions. First, only one compound molecule binds to the enzyme and there is no cooperativity. […] Third, the enzymatic rate of the enzyme-inhibitor complex is zero. The rate (i.e., compound concentration) data are fitted to the equation: […]

[1] = Table 11, Chk1 only, class symbols A-D

Structure (SMILES): CNNC(=O)c1nc(-c2cccc(CN[C@H]3CCc4ccccc43)c2)cnc1N [Example 553, 3-amino-6-(3-{[(1S)-2,3-dihydro-1H-inden-1-ylamino]methyl}phenyl)-N′-methylpyrazine-2-carbohydrazide]
- IC50 (Table 11, Chk1 only): 50 to 1000 nM

Structure (SMILES): Nc1ncc(-c2cccc(C(=O)NCc3c(F)cccc3Cl)c2)nc1C(=O)N[C@H]1CCNC1 [Example 746, 3-amino-6-[3-({[(2-chloro-6-fluorophenyl)methyl]amino}carbonyl)phenyl]-N-[(3S)-pyrrolidin-3-yl]pyrazine-2-carboxamide]
- IC50 (Table 11, Chk1 only): 50 to 1000 nM

Structure (SMILES): Cc1ccc(CNC(=O)c2cccc(-c3cnc(N)c(C(=O)N[C@H]4CCCNC4)n3)c2)c(F)c1F [Example 858, 3-amino-6-[3-({[(2,3-difluoro-4-methylphenyl)methyl]amino}carbonyl)phenyl]-N-[(3S)-piperidin-3-yl]pyrazine-2-carboxamide]
- IC50 [1]: < 50 nM

Structure (SMILES): Nc1ncc(-c2cccc(CNC(=O)Nc3ccc4c(c3)OCO4)c2)nc1C(=O)N[C@H]1CCCNC1 [Example 956, 3-amino-6-[3-({[(1,3-benzodioxol-5-ylamino)carbonyl]amino}methyl)phenyl]-N-[(3S)-piperidin-3-yl]pyrazine-2-carboxamide]
- IC50 [1]: < 50 nM

Structure (SMILES): CC(C)(C)OC(=O)N1CC[C@H](NC(=O)c2nc(-c3cccc(C(=O)NCc4ccc(OC(F)(F)F)cc4)c3)cnc2N)C1 [Example 739, 1,1-dimethylethyl (3S)-3-({[3-amino-6-(3-{[({4-[(trifluoromethyl)oxy]phenyl}methyl)amino]carbonyl}phenyl)pyrazin-2-yl]carbonyl}amino)pyrrolidine-1-carboxylate]
- IC50 (Table 11, Chk1 only): 50 to 1000 nM

Structure (SMILES): Cn1nc(-c2nc(-c3cccc(C(=O)NCc4ccccc4)c3)cnc2N)nc1C1CCCCN1 (stereo not shown) [Example 701, 3-[5-amino-6-(1-methyl-5-piperidin-2-yl-1H-1,2,4-triazol-3-yl)pyrazin-2-yl]-N-(phenylmethyl)benzamide]
- IC50 (Table 11, Chk1 only): ≥ 10000 nM

Structure (SMILES): C/C(=N\N1CCN(C)CC1)c1nc(-c2cccc(C(=O)NCc3ccccc3)c2)cnc1N [Example 642, 3-{5-amino-6-[(1E)-N-(4-methylpiperazin-1-yl)ethanimidoyl]pyrazin-2-yl}-N-(phenylmethyl)benzamide]
- IC50 (Table 11, Chk1 only): 50 to 1000 nM

Structure (SMILES): CNC(=O)c1nc(-c2cccc(CN[C@@H]3CCN(Cc4ccccc4)C3)c2)cnc1N [Example 438, 3-amino-N-methyl-6-[3-({[(3R)-1-(phenylmethyl)pyrrolidin-3-yl]amino}methyl)phenyl]pyrazine-2-carboxamide]
- IC50 (Table 11, Chk1 only): 50 to 1000 nM

Structure (SMILES): CNC(=O)c1nc(-c2cccc(C(=O)NCc3ccc(-n4cccn4)cc3)c2)cnc1N [Example 379, 3-amino-N-methyl-6-{3-[({[4-(1H-pyrazol-1-yl)phenyl]methyl}amino)carbonyl]phenyl}pyrazine-2-carboxamide]
- IC50: 50 to 1000 nM

Structure (SMILES): CC(C)(C)OC(=O)N1CCC[C@@H](NC(=O)c2nc(-c3cccc(C(=O)N[C@H]4CCc5ccccc54)c3)cnc2N)C1 [Example 794, 1,1-dimethylethyl (3R)-3-({[3-amino-6-(3-{[(1S)-2,3-dihydro-1H-inden-1-ylamino]carbonyl}phenyl)pyrazin-2-yl]carbonyl}amino)piperidine-1-carboxylate]
- IC50 (Table 11, Chk1 only): 1000 to 10000 nM

Structure (SMILES): CNC(=O)c1nc(-c2cccc(OCCN3CCC(Cc4ccccc4)CC3)c2)cnc1N [Example 187, 3-amino-N-methyl-6-[3-({2-[4-(phenylmethyl)piperidin-1-yl]ethyl}oxy)phenyl]pyrazine-2-carboxamide]
- IC50: 50 to 1000 nM

Structure (SMILES): Nc1ncc(-c2cccc(CNC(=O)c3ccc(-c4ccccc4)cc3)c2)nc1C(=O)N[C@H]1CCCNC1 [Example 933, 3-amino-6-(3-{[(biphenyl-4-ylcarbonyl)amino]methyl}phenyl)-N-[(3S)-piperidin-3-yl]pyrazine-2-carboxamide]
- IC50 [1]: < 50 nM

Structure (SMILES): COc1ccc2c(CC(=O)Nc3cccc(-c4cnc(N)c(C(=O)N[C@H]5CCCNC5)n4)c3)coc2c1 [Example 911, 3-amino-6-[3-({[6-(methyloxy)-1-benzofuran-3-yl]acetyl}amino)phenyl]-N-[(3S)-piperidin-3-yl]pyrazine-2-carboxamide]
- IC50 [1]: < 50 nM

Structure (SMILES): Nc1ncc(-c2cccc(C(=O)N[C@@H]3c4ccccc4C[C@@H]3O)c2)nc1C(=O)NCCc1c[nH]cn1 [Example 751, 3-amino-6-[3-({[(1R,2S)-2-hydroxy-2,3-dihydro-1H-inden-1-yl]amino}carbonyl)phenyl]-N-[2-(1H-imidazol-4-yl)ethyl]pyrazine-2-carboxamide]
- IC50 (Table 11, Chk1 only): 50 to 1000 nM

Structure (SMILES): CNC(=O)c1nc(-c2cccc(C(=O)NCC3COc4ccccc4O3)c2)cnc1N (stereo not shown) [Example 202, 3-amino-6-(3-{[(2,3-dihydro-1,4-benzodioxin-2-ylmethyl)amino]carbonyl}phenyl)-N-methylpyrazine-2-carboxamide]
- IC50: 50 to 1000 nM

Structure (SMILES): Nc1ncc(-c2cccc(CN[C@H]3CCc4ccccc43)c2)nc1-c1nc(C2CCCNC2)cs1 (stereo partly drawn) [Example 824, 5-(3-{[(1S)-2,3-dihydro-1H-inden-1-ylamino]methyl}phenyl)-3-(4-piperidin-3-yl-1,3-thiazol-2-yl)pyrazin-2-amine]
- IC50 [1]: ≥ 10000 nM

Structure (SMILES): Nc1ncc(-c2cccc(C(=O)NCc3ccccc3Cl)c2)nc1-c1nc([C@H]2CCCNC2)n[nH]1 [Example 821, 3-(5-amino-6-{3-[(3S)-piperidin-3-yl]-1H-1,2,4-triazol-5-yl}pyrazin-2-yl)-N-[(2-chlorophenyl)methyl]benzamide]
- IC50 [1]: < 50 nM

Structure (SMILES): Nc1ncc(-c2cccc(CNCc3ccc(F)cc3F)c2)nc1C(=O)N[C@H]1CCCNC1 [Example 999, 3-amino-6-[3-({[(2,4-difluorophenyl)methyl]amino}methyl)phenyl]-N-[(3S)-piperidin-3-yl]pyrazine-2-carboxamide]
- IC50 [1]: < 50 nM

Structure (SMILES): Nc1ncc(-c2cccc(C(=O)NCc3cccc(F)c3)c2)nc1-c1nnc([C@H]2CCCNC2)[nH]1 [Example 835, 3-(5-amino-6-{5-[(3S)-piperidin-3-yl]-4H-1,2,4-triazol-3-yl}pyrazin-2-yl)-N-[(3-fluorophenyl)methyl]benzamide]
- IC50 [1]: < 50 nM

Second part, the compound after the results:

- IC50: 50 to 1000 nM
Structure (SMILES): CNC(=O)c1nc(-c2cccc(C(=O)NC3Cc4ccccc4C3)c2)cnc1N [Example 104, 3-amino-6-{3-[(2,3-dihydro-1H-inden-2-ylamino)carbonyl]phenyl}-N-methylpyrazine-2-carboxamide]

- IC50: 50 to 1000 nM
Structure (SMILES): CNC(=O)c1nc(-c2cccc(NC(=O)CCc3ccccc3)c2)cnc1N [Example 159, 3-amino-N-methyl-6-{3-[(3-phenylpropanoyl)amino]phenyl}pyrazine-2-carboxamide]

- IC50: 1000 to 10000 nM
Structure (SMILES): CNC(=O)c1nc(-c2cccc(C(=O)N[C@@H]3CCNC3)c2)cnc1N [Example 358, 3-amino-N-methyl-6-(3-{[(3R)-pyrrolidin-3-ylamino]carbonyl}phenyl)pyrazine-2-carboxamide]

- IC50: 1000 to 10000 nM
Structure (SMILES): CNC(=O)c1nc(-c2ccc(C(C)=O)cc2)cnc1N [Example 79, 6-(4-acetylphenyl)-3-amino-N-methylpyrazine-2-carboxamide]

- IC50: 50 to 1000 nM
Structure (SMILES): CNC(=O)c1nc(-c2cccc(C(=O)NCCc3ccccc3)c2)cnc1N [Example 94, 3-amino-N-methyl-6-(3-{[(2-phenylethyl)amino]carbonyl}phenyl)pyrazine-2-carboxamide]

- IC50: 50 to 1000 nM
Structure (SMILES): CNC(=O)c1nc(-c2cccc(C(=O)Nc3ccc(OC)cc3)c2)cnc1N [Example 222, 3-amino-N-methyl-6-[3-({[4-(methyloxy)phenyl]amino}carbonyl)phenyl]pyrazine-2-carboxamide]

- IC50: 50 to 1000 nM
Structure (SMILES): CNC(=O)c1nc(-c2cccc(CNC(=O)Cc3ccccc3)c2)cnc1N [Example 330, 3-amino-N-methyl-6-(3-{[(phenylacetyl)amino]methyl}phenyl)pyrazine-2-carboxamide]

- IC50: 50 to 1000 nM
Structure (SMILES): CNC(=O)c1nc(-c2cccc(C(=O)NCCNc3ccccc3)c2)cnc1N [Example 412, 3-amino-N-methyl-6-[3-({[2-(phenylamino)ethyl]amino}carbonyl)phenyl]pyrazine-2-carboxamide]

- IC50: 50 to 1000 nM
Structure (SMILES): CNC(=O)c1nc(-c2ccsc2)cnc1N [Example 264, 3-amino-N-methyl-6-(3-thienyl)pyrazine-2-carboxamide]
